Results from ChEMBL document CHEMBL4342439, “Targeting Stimulator of Interferon Genes (STING): A Medicinal Chemistry Perspective” (J Med Chem, 2020).

Assays:
[1] = molecular target: Stimulator of interferon genes protein (Homo sapiens, UniProt Q86WV6, G230A/R293Q/R71H); assay: Displacement of [3H]-cGAMP from full length STING HAQ mutant in human THP1 cells by filtration binding assay; format: cell-based
[2] = Binding affinity to human STING H232 mutant by ITC assay
[3] = molecular target: T1, Stimulator of interferon genes protein (Mus musculus, UniProt Q3TBT3); assay: Binding affinity to mouse STING by ITC assay
T1 sequence (Q3TBT3 whole entry): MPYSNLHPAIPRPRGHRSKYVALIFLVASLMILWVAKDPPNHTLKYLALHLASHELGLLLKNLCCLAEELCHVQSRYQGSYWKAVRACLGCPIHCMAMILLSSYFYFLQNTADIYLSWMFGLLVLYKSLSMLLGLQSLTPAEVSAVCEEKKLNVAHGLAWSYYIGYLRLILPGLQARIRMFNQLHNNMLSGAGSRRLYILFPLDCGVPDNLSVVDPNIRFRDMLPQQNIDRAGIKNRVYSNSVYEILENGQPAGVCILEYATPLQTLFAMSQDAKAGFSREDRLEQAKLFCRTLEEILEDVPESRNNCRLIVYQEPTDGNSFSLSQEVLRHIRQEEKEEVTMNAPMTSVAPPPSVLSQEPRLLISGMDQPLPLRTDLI

[4] = molecular target: T2, Stimulator of interferon genes protein (Homo sapiens, UniProt Q86WV6); assay: Inhibition of STING in human THP1 cells in presence of PFO by IFN reporter gene assay; format: cell-based
T2 sequence (Q86WV6 whole entry): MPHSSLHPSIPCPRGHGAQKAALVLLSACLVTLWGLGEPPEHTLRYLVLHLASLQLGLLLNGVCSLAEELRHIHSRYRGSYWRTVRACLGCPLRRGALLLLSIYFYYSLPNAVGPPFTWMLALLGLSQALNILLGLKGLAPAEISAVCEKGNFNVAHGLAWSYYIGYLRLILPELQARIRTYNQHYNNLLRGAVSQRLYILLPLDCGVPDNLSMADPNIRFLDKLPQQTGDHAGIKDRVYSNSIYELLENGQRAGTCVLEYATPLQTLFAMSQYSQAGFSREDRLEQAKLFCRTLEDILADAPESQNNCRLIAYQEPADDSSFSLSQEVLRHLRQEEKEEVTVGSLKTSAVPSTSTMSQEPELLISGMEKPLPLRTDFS

[5] = molecular target: T2, Stimulator of interferon genes protein; assay: Inhibition of STING in human THP1 cells by IFN reporter gene assay; format: cell-based
[6] = molecular target: T2, Stimulator of interferon genes protein; assay: Inhibition of STING in human THP1 cells in presence of digitonin by IFN reporter gene assay; format: cell-based
[7] = molecular target: T2, Stimulator of interferon genes protein; assay: Inhibition of STING in human THP1 cells; format: cell-based
[8] = molecular target: T2, Stimulator of interferon genes protein; assay: Inhibition of STING in human THP1 cells by R232 IRF-luciferase reporter gene assay; format: cell-based
[9] = molecular target: T1, Stimulator of interferon genes protein; assay: Displacement of [3H]-cGAMP from mouse STING by filtration binding assay
[10] = molecular target: T2, Stimulator of interferon genes protein; assay: Displacement of [3H]-cGAMP from wild type human STING by filtration binding assay
[11] = system: Stimulator of interferon genes protein (Homo sapiens), Q86WV6 [R71H,G230A,R293Q]; assay: Effect on full length STING HAQ mutant in human THP1 cells at 10 uM relative to 2',3- cGAMP; format: cell-based
Chain of Stimulator of interferon genes protein (Homo sapiens), Q86WV6 [R71H,G230A,R293Q] (Q86WV6 whole entry R71H/G230A/R293Q): as the sequence (Q86WV6 whole entry) above, with R71H, G230A, R293Q counted along it

[12] = molecular target: T2, Stimulator of interferon genes protein; assay: Inhibition of wild type human STING by SPA assay
[13] = Inhibition of human STING H232 mutant by SPA assay

Chain of Stimulator of interferon genes protein (Homo sapiens, UniProt Q86WV6, G230A/R293Q/R71H) (Q86WV6 whole entry R71H/G230A/R293Q): as the sequence (Q86WV6 whole entry) above, with R71H, G230A, R293Q counted along it

With `COc1cc2cc(C(=O)CC(C)C(=O)O)sc2cc1OC` (configuration not stated) as the molecule, how does the EC50 [1] read?
The EC50 was 5550 nM.

Which EC50 [1] does the source give for `COc1cc2cc(C(=O)CCC(=O)OC(C)(C)C)sc2cc1OC` here?
Its EC50 is 5990 nM.

Which Kd [2] does the source give for `Nc1nc2c(ncn2[C@@H]2O[C@@H]3COP(=O)(O)O[C@@H]4[C@H](O)[C@@H](COP(=O)(O)O[C@@H]2[C@@H]3O)O[C@H]4n2cnc3c(N)ncnc32)c(=O)[nH]1` here?
Its Kd is 2500 nM.

With `NC[C@H]1[C@H]2OP(=O)(O)OC[C@H]3O[C@@H](n4cnc5c(N)ncnc54)[C@H](O)[C@@H]3OP(=O)(O)OC[C@H]1O[C@H]2n1cnc2c(=O)[nH]c(N)nc21` as the molecule, how does the EC50 [1] read?
The EC50 was 21.5 nM.

For `Nc1nc2c(ncn2[C@@H]2S[C@@H]3COP(=O)(O)O[C@H]4[C@@H](O)[C@H](n5cnc6c(N)ncnc65)O[C@@H]4COP(=O)(O)O[C@@H]2[C@@H]3O)c(=O)[nH]1`, which EC50 [1] is on record?
Its EC50 is 1.2 nM.

With `COc1cc2cc(C(=O)C[C@H](C)C(=O)O)sc2cc1Br` as the molecule, how does the EC50 [1] read?
Its EC50 is 894 nM.

Which EC50 [1] does the source give for `COc1cc2cc(C(=O)C[C@H](C)C(=O)O)sc2cc1OC` here?
The EC50 was 2740 nM.

Which EC50 [1] does the source give for `COc1cc2sc(C(=O)[C@@H]3C[C@@H]3C(=O)O)cc2c(F)c1OC` here?
The EC50 was 599 nM.

For `COc1c(O)cc2oc3cc(O)c(CC=C(C)C)c(O)c3c(=O)c2c1CC=C(C)C` [MANGOSTIN], which Kd [3] is on record?
The Kd was 137000 nM.

For `COc1cc2sc(C(=O)C[C@H](C)C(=O)O)cc2cc1Br`, which EC50 [1] is on record?
The EC50 was 2640 nM.

For `BP1(=O)OC[C@H]2O[C@@H](n3cnc4c(N)ncnc43)[C@H](O)[C@@H]2OP(=O)(O)OC[C@H]2O[C@@H](n3cnc4c(=O)[nH]c(N)nc43)[C@H](O1)[C@@H]2O` (some centres not stated), which EC50 [4] is on record?
Its EC50 is less than 100 nM.

What about the EC50 [5] of the same molecule?
The EC50 was less than 30000 nM.

For `Nc1ncnc2c1ncn2[C@@H]1O[C@@H]2CO[P@@](=O)(S)O[C@@H]3[C@H](F)[C@@H](CO[P@@](=O)(S)O[C@H]2[C@H]1F)O[C@H]3n1cnc2c(N)ncnc21`, which EC50 [6] is on record?
The EC50 was 190 nM.

And the EC50 [5]?
Its EC50 is 4500 nM.

For `Nc1ncnc2c1ncn2[C@@H]1O[C@@H]2CNC(=O)N[C@H]3[C@@H](O)[C@H](n4cnc5c(N)ncnc54)O[C@@H]3CNC(=O)N[C@H]2[C@H]1O`, which EC50 [7] is on record?
The EC50 was 25400 nM.

Which EC50 [4] does the source give for `BP1(=O)OC[C@H]2O[C@@H](n3cnc4c(=O)[nH]c(N)nc43)[C@H](OP(=O)(O)OC[C@H]3O[C@@H](n4cnc5c(N)ncnc54)[C@H](O)[C@@H]3O1)[C@@H]2O` (some centres not stated) here?
The EC50 was less than 100 nM.

And the EC50 [5]?
Its EC50 is less than 30000 nM.

Which EC50 [7] does the source give for `Nc1ncnc2c1ncn2[C@@H]1O[C@@H]2CNC(=S)N[C@H]3[C@@H](O)[C@H](n4cnc5c(N)ncnc54)O[C@@H]3CNC(=S)N[C@H]2[C@H]1O` here?
The EC50 was 22200 nM.

What does the source list for `COc1c(Cl)ccc2c(=O)c3ccc(C(C)(C)C)cc3n(CC(=O)O)c12`?
IC50 [8]: > 50000 nM; IC50 [9]: < 20000 nM; IC50 [10]: < 20000 nM

With `Nc1nc2c(ncn2[C@@H]2O[C@@H]3COP(=O)(O)O[C@H]4[C@@H](O)[C@H](n5cnc6c(N)nc(F)nc65)O[C@@H]4COP(=O)(O)O[C@@H]2[C@@H]3O)c(=O)[nH]1` as the molecule, how does the EC50 [1] read?
Its EC50 is 24.6 nM.

For `C=C1[C@@H](n2cnc3c(N)ncnc32)[C@H](F)[C@@H]2O[P@@](O)(=S)OC[C@H]3O[C@@H](n4cnc5c(=O)[nH]c(N)nc54)[C@H](OP(O)(=S)OC[C@@H]12)[C@@H]3F` (some centres not stated), which EC50 [5] is on record?
Its EC50 is 740 nM.

What about the Activity [11] of the same molecule?
Its Activity is 430%.

With `COc1cc2sc(C(=O)C[C@H](C)C(=O)O)cc2c(F)c1OC` as the molecule, how does the EC50 [1] read?
Its EC50 is 1380 nM.

For `COc1cc2cc(C(=O)CCC(=O)O)sc2cc1OC`, which EC50 [1] is on record?
The EC50 was 1720 nM.

With `Nc1ncnc2c1ncn2[C@@H]1O[C@@H]2CO[P@@](=O)(S)O[C@@H]3C[C@@H](CO[P@@](=O)(S)O[C@H]2[C@H]1F)O[C@H]3n1cnc2c(N)ncnc21` as the molecule, how does the EC50 [5] read?
The EC50 was 10200 nM.

With `CCn1nc(C)cc1C(=O)Nc1nc2cc(C(N)=O)ccc2n1CCCCn1c(NC(=O)c2cc(C)nn2CC)nc2cc(C(N)=O)ccc21` as the molecule, how does the IC50 [12] read?
Its IC50 is 20 nM.

For `C#C[C@@H]1O[C@@H]2COP(=O)(S)O[C@H]3[C@@H](F)[C@H](n4cnc5c(N)ncnc54)O[C@@H]3COP(=O)(S)O[C@@H]1[C@@H]2O` (some centres not stated), which EC50 [1] is on record?
Its EC50 is less than 1 nM.

For `COc1cc2sc(C(=O)C[C@H](C)C(=O)O)cc2c2nc(C)oc12`, which EC50 [1] is on record?
The EC50 was 531 nM.

With `Nc1nc2c(ncn2[C@@H]2O[C@@]34CO[C@@H]2[C@@H]3O[P@](=O)(S)OC[C@@]23CO[C@@H]([C@H](n5cnc6c(N)ncnc65)O2)[C@@H]3O[P@](=O)(S)OC4)c(=O)[nH]1` as the molecule, how does the EC50 [6] read?
The EC50 was 19300 nM.

With `COc1cc2cc(C(=O)CC(C(=O)O)C(C)C)sc2cc1OC` (configuration not stated) as the molecule, how does the EC50 [1] read?
The EC50 was 9590 nM.

Which EC50 [1] does the source give for `COc1cc2sc(C(=O)[C@H]3C[C@H]3C(=O)O)cc2c(F)c1OC` here?
Its EC50 is 17800 nM.

With `Nc1ncnc2c1ncn2[C@@H]1O[C@@H]2CO[P@@](=O)(S)O[C@@H]3[C@H](F)[C@@H](CO[P@@](=O)(S)O[C@H]2[C@H]1O)O[C@H]3n1cnc2c(N)ncnc21` as the molecule, how does the EC50 [6] read?
The EC50 was 399 nM.

And the EC50 [5]?
The EC50 was 11200 nM.

Which EC50 [6] does the source give for `Nc1nc2c(ncn2[C@@H]2O[C@@H]3CO[P@@](=O)(S)O[C@H]4[C@H]5OC[C@]4(CO[P@@](=O)(S)O[C@H]3[C@H]2O)O[C@H]5n2cnc3c(N)ncnc32)c(=O)[nH]1` here?
The EC50 was 5800 nM.

Which EC50 [4] does the source give for `CCC[C@H]1[C@H]2OP(=O)(O)OC[C@H]3O[C@@H](n4cnc5c(N)ncnc54)[C@H](O)[C@@H]3OP(=O)(O)OC[C@H]1O[C@H]2n1cnc2c(=O)[nH]c(N)nc21` here?
Its EC50 is no more than 30000 nM.

And the EC50 [5]?
The EC50 was no more than 100 nM.

For `CCn1nc(C)cc1C(=O)/N=c1\[nH]c2cc(C(N)=O)ccc2n1C[C@@H](O)c1ccccc1`, which IC50 [12] is on record?
The IC50 was 14000 nM.

Which EC50 [13] does the source give for `CCn1nc(C)cc1C(=O)/N=c1\[nH]c2cc(C(N)=O)cc(OC)c2n1C/C=C/Cn1/c(=N/C(=O)c2cc(C)nn2CC)[nH]c2cc(C(N)=O)cc(OCCCN3CCOCC3)c21` here?
Its EC50 is 200 nM.

Which EC50 [1] does the source give for `Nc1nc2c(nnn2[C@@H]2O[C@@H]3COP(=O)(O)O[C@H]4[C@@H](O)[C@H](n5cnc6c(N)ncnc65)O[C@@H]4COP(=O)(O)O[C@@H]2[C@@H]3O)c(=O)[nH]1` here?
Its EC50 is less than 1 nM.

Which EC50 [1] does the source give for `Nc1nc2c(ncn2[C@@H]2O[C@@H]3COP(=O)(O)O[C@H]4[C@@H](O)[C@H](n5cnc6c(N)nc(F)nc65)O[C@@H]4COP(=O)(O)O[C@@H]2[C@@H]3O)c(=S)[nH]1` here?
The EC50 was 1.7 nM.
